From patent US20250009791A1, “METHOD FOR PREVENTION AND REDUCTION OF SKIN STASIS WITH COMPOSITIONS AND MATERIALS COMPRISING COPPER COMPOUNDS” (MEDCU TECHNOLOGIES LTD., priority 2018, published 2025)
“Also recorded” adds a separate entry of the source.

Key:
[1] = system: Ki67 stained cells in burned human skin explants; experiment: Ki67 immunostaining of proliferating keratinocytes at the re-epithelisation area; type: cell-based; settings: FIG. 7
Experimental: Immunostaining with Rabbit-anti Ki67 (Abcam, UK) was performed following rehydration, blocking in 2% BSA in PBS for 20 mins, for 2 hours, followed by exposure to Goat Anti-Rabbit IgG H&L (HRP) for one hour and detection by DAB substrate (Abcam, UK). Washes were then performed in 0.025% Tween/PBS. Counterstain was performed with haematoxylin (Sigma, Israel). Images were captured using Zeiss® PrimoVert microscope connected to Motic® Moticam 5+ camera.

TGF-β = TGF-β secretion into spent medium by ELISA; type: cell-based, human
Experimental: (§1) During harvesting time points, the spent medium from all Test Groups was collected and centrifuged at 1500×g for 5 minutes to remove particulates. Media were kept at −80° C. until use. The secretion levels of IL-6, IL-8 and TGF-β were measured by commercial Enzyme-Linked Immunosorbent Assay (ELISA) kits according to manufacturer instructions (Biolegend, San Diego, CA). Briefly, plates were coated for 24 hours prior to assay with a specific anti-human capture antibody. At the day of the assay, coated plates were incubated with samples, followed by washes for unbound molecules. Then additional detection antibody was added and detected by Avidin-HRP solution. Finally, wells were incubated with a substrate solution, while absorbance was measured at 570 nm.
(§2) In order to further understand how addition of copper ions affected the skin explants, the amounts of Interleukin 6 (IL-6), Interleukin 8 (IL-8) and transforming growth factor beta (TGF-β) found in the medium of the various treated explants were determined. FIGS. 3a, 3c and 3e show the cytokine expression in burn-induced inflammation in human ex vivo skin and comparison between the IL-6, IL-8 and TGF-β secretion by the untreated skin explants (Naïve Controls) and the wounded skin explants (Burn Controls) following wounding. In these figures, the p values of a t-test between the cytokine expressions per a particular day following wounding are shown. Measurements were normalized to amount of cytokine secreted from normal skin and are presented as percent of Naïve control.
Reference is also made to FIGS. 3b, 3d and 3f showing the effect of addition of copper ions (0.02 μM or 1 μM) on secretion of IL-6, IL-8 and TGF-β, respectively, as compared to Naïve Controls and Burn Controls on Day 4 (treated with saline only) (FIGS. 3b and 3d) and on Day 6 (FIG. 3f) after wounding. In the graphs, the star sign “*” indicates the statistically significant difference as compared to the Naïve Controls, while the net sign “#” indicates the statistically significant difference as compared to the untreated (treated with saline only) Burn Controls.

IL-8 = IL-8 secretion into spent medium by ELISA; type: cell-based, human
Experimental: as §1
as §2, with “In these figures, the p values of a t-test between the cytokine expressions per a particular day following wounding are shown. Measurements were normalized to amount of cytokine secreted from normal skin and are presented as percent of Naïve control.” left out

[2] = system: burn wounds on human skin explants (zone of stasis); experiment: Burn wound area measurement in ex-vivo human skin explant burn model; type: cell-based; settings: for size of the wounds compared with wounds treated with saline only: 0.02 μM copper ions
Experimental: Human skin was obtained from healthy donors undergoing abdominal dermolipectomy after receiving informed consent. A 0.5 mm split-thickness skin graft was harvested using a dermatome (Aesculap AG & Co. KG, Tuttlingen, Germany) and was cut into 1 cm^2 pieces. Round burn wounds of with a diameter of […] were inflicted in the 0.7 cm^2 skin pieces by exposure to a soldering iron (95° C., 2 Sec). Triplicate pieces were kept intact as naïve controls. The injured and intact skin samples were placed dermis down on a stainless-steel grid and cultured at the air-liquid interface at 37° C. with 5% CO2 in Dulbecco's Modified Eagle's Medium (DMEM), 10% fetal calf serum (Biological Industries, Beit Ha′emek, Israel), and penicillin/streptomycin (100 IU/mL penicillin, […] streptomycin; Invitrogen). Culture medium was refreshed twice a week. The explants were cultured up to 27 days after wounding. Each individual experiment was performed with skin explants obtained from the same individual and the experiments were repeated at least three times. Reference is now made to FIGS. 1a and 1b schematically showing a side view and a top view, respectively, of this ex-vivo explant model. The skin explants are placed dermis down on a stainless-steel grid. Culture media is added to the bottom of the well, without reaching the epidermal layer, which is exposed to the air. […] From the stock solutions, solutions of 0.02 μM or 1 μM of copper ions were prepared in saline. […] Each control and treatment were performed in at least three replicate explants. Skin was obtained from 35-65-year-old healthy patients undergoing abdominoplasty surgery. The patient's under general anesthesia, went standard or circumferential abdominoplasty. After excision of the excess skin, the subcutaneous fat was removed using sterile technique. The defatted full-thickness skin was submerged in culture medium and transferred to the laboratory. The skin was cut into 8×8 mm squares by costume made apparatus. Round 0.8 mm diameter burn wounds were inflicted on the skin explants by exposure to a soldering iron (200° C., 10 Sec). The injured (burnt) and control intact skin samples were placed dermis down and kept at the air-liquid interface at 37° C. with 5% CO2 in Dulbecco's Modified Eagle's Medium supplemented with 100 IU/mL penicillin and […] streptomycin and 10% serum (Biological Industries, Beit Ha′emek, Israel). Culture medium was refreshed every 48 hours, i.e. immediately following injury and then again, every 48 hours, saline only or containing 0.02 μM or 1 μM copper ions were added onto the skin explant burn wounds. The explants were cultured up to 27 days after wounding. Pictures of burns were captured using Motic® Moticam 5+ camera at designated time points. Wound area was measured using ImageJ software suit. […]

IL-6 = IL-6 secretion into spent medium by ELISA; type: cell-based, human
Experimental: as §1, with “nm. In order to further understand how addition of copper ions affected the skin explants, the amounts of Interleukin 6 (IL-6), Interleukin 8 (IL-8) and transforming growth factor beta (TGF-β) found in the medium of the various treated explants were determined. FIGS. 3a, 3c and 3e show the cytokine expression in burn-induced inflammation in human ex vivo skin and comparison between the IL-6, IL-8 and TGF-β secretion by the untreated skin explants (Naïve Controls) and the wounded skin explants (Burn Controls) following wounding. […]” for “nm.”

[3] = system: epidermis of human skin explants; experiment: MTT viability assay of the epidermis of skin explants; type: cell-based; settings: 0.02 μM or 1 μM copper ions
Experimental: To assess the cell viability throughout the culture period a 3-(4,5-dimethylthiazol-2-yl)-2,5-diphenyltetrazolium bromide (MTT) assay was performed at different days after wounding as follows:
To assess the cell viability throughout the culture period a 3-(4,5-dimethylthiazol-2-yl)-2,5-diphenyltetrazolium bromide (MTT) assay was performed 1, 3, 5, 10, 14, 21 and 27 days, following wounding, as follows: skin explants were incubated for 60 sec in pre-warmed PBS (56° C.). Then the epidermis layer of each replicate was separated from the dermis by grabbing the tissue edge with tweezers and peeling the epidermis off using a scalpel. Epidermal pieces were transferred to 96 well-plate, each well contains 150 μl MTT (Sigma, 0.5 mg/ml) and incubated for 1 hour at 37° C. and reduced light conditions. Then, the epidermis pieces were transferred to a new 96 well-plate containing 150 μl of isopropanol. Plates were placed for 5 min, 200 rpm in a plate shaker (MRC, Beijing, China). Following incubation, epidermis sections were removed, and absorbance was measured at 570 nm in Tecan plate reader (Tecan Group Ltd. Switzerland).

[4] = system: burned human skin explants; experiment: Histology of skin explants (H&E, Masson's trichrome); type: cell-based
Experimental: At indicated harvesting time points, skin explants were fixed with 4% formaldehyde for 1 hour at room temperature. Then, the samples were washed twice with PBS and kept at 70% ethanol at 2-8° C. until use. Following dehydration in gradual increasing concentrations of ethanol and embedment, paraffin sections (8 μm) were prepared, pasted on slides and either stained with haematoxylin and eosin (H&E) or Masson trichrome stain, according to the manufacturer specification (Sigma-Aldrich) followed by mounting with DPX mountant (Sigma, Israel).
Examination of tissue formation was performed on day 12 and 27. Sections of Normal and Burned skin, treated or not with copper ions were stained with H&E and Masson's trichrome staining respectively. FIGS. 6a-6c show full length images of sections stained with H&E.

SMILES: [Cu+] [copper ions]
- amount of Ki67 stained cells compared to control ([1]; 0.02 μM copper ions): significantly higher amount of Ki67 stained cells
- newly proliferating cells stained with Ki67 ([1]; skin pieces fixed after 12 days): significantly more common
- burn-induced increase of TGF-β compared with Burn Controls (TGF-β; 0.02 μM or 1 μM copper ions from both copper sources, Day 4 (FIG. 3f)): dramatically inhibited; also recorded: significantly attenuated or abolished; also recorded: significantly inhibited
- TGF-β level (TGF-β; Day 6 and onwards): returning to normal levels
- TGF-β secretion compared with Burn control samples (TGF-β; other examined days): no statistically significant differences
- burn-induced increase of IL-8 compared with Burn Controls (IL-8; 0.02 μM or 1 μM copper ions from both copper sources, Day 4 (FIG. 3d)): significantly lower; also recorded: significantly attenuated or abolished
- amount of IL-8 secreted compared with Burn control samples (IL-8; Day 1): did not differ significantly
- size of the wounds compared with wounds treated with saline only ([2]; 5 and 10 days following wounding): similarly smaller wounds
- size of the wounds compared with wounds treated with saline only ([2]; three days following wounding): statistically smaller than the wounds which are treated with saline only
- burn size at the end of the experiment ([2]; end of the experiment): not massively improved
- increase in burn size that occurs after the initial damage ([2]; topical application of the ions): prevented the increase in burn size
- levels of IL-6 (IL-6; Day 1 following the burn): dramatically elevated in the Burn Controls but not in the copper ion treated samples
- IL-6 levels compared with Burn Control samples (IL-6; after Day 4): no significant differences in IL-6 levels
- viability of burned skin explants compared with untreated pieces ([3]; 5 days after burn, differences not statistically significant): a trend of increased viability
- viability of burned skin explants compared with untreated pieces ([3]; after 1 day): remained similar to the untreated pieces
- re-epithelisation (epithelia regeneration) ([4]; 0.02 μM and 1 μM copper ions, 12 days, H&E, vs Burn Control): Beginning of epithelia regeneration (grey arrows) is seen; also recorded: newly formed epithelia
- detachment of the epidermal tissue from the dermis ([4]; 0.02 μM or 1 μM copper ions, day 12, H&E, FIGS. 6b and 6c): less detached of the epidermal tissue from the dermis
- re-epithelisation ([4]; Day 27, Masson's trichrome, FIG. 4c, vs control samples): clear re-epithelisation occurred
- collagen stain / amount of collagen fibers in the dermal layer ([4]; Day 27, Masson's trichrome, FIG. 4c, vs saline-treated control): an increase in the amount of collagen fibers; also recorded: greater collagen stain
